From PubChem BioAssay (NCI) come the findings set out here.

Holding throughout (assay): DTP human tumour cell line panel, 48 h
The subject of assay [1] is HCC-2998 colon.
The test system of assay [2] is HL-60(TB) leukemia.
The subject of assay [3] is M14 melanoma.
Assay [4] deals with K-562 leukemia.
For assay [5], the system named is HOP-92 NSCLC.
The subject of assay [6] is SNB-75 CNS.
Assay [7] has as its system A549 NSCLC.
Assay [8] has as its system IGROV1 ovarian.

The structures appear in SMILES notation. Several values for one entry are separate records, joined by “and”; a condition that tells them apart may be missing. Equal values may be shown once.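 Step 1: Grow cells in 96-well plates. Step 2: Expose to compound for 48 hours at 5 concentrations. Step 3: Interpolate endpoints linearly; if unreached, use highest concentration. GI50 is the concentration that inhibits growth by half. TGI marks complete inhibition of growth.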 A value given as a limit tells only on which side of the number the result lay.

The TGI is the concentration at which net growth stops. Regarding `CN(C)C=Nc1nc(=O)n(C2CCC(CO)O2)cc1F` (stereo unspecified), the TGI in assay [1], in assay [2], in assay [3], in assay [4], in assay [5] and in assay [6] was over 100 µM throughout. For the same compound, in assay [7], the TGI was over 100 µM.
`CCOC(=O)C1=C(C)N(NC(=O)Nc2ccccc2)C2(N)N(NC(=O)Nc3ccccc3)C(C)=C(C(=O)OCC)C12C(=O)OCC` (stereo unspecified): the TGI was 80.8 µM in assay [1]; over 100 µM in assay [2]; over 100 µM in assay [3]; over 100 µM in assay [4]; 42.8 µM in assay [5]; over 100 µM in assay [8]. Moreover, the TGI in assay [6] is 98.1 µM; in assay [7], over 100 µM.
Take `CN(C)C(=S)/N=c1\ssc(=S)n1C1CCCCC1`: the TGI in assay [1] was over 100 µM; in assay [2] it was 32.5 µM; in assay [3], 36.3 µM; in assay [4] it was 52.6 µM; in assay [5] it was 96.6 µM; in assay [8], over 100 µM. Also, the TGI in assay [6] and in assay [7] was over 100 µM each time.
`O=C(NC1C=CCC2C(=O)N(c3ccccc3)C(=O)C12)OCc1ccccc1` (stereo unspecified): the TGI in assay [1], in assay [2], in assay [3], in assay [4], in assay [5] and in assay [8] was over 100 µM in each case. The TGI in assay [6] and in assay [7] was over 100 µM throughout.
In the case of `Cc1ccc(S(=O)(=O)N2CCC2c2ccccc2)cc1` (stereo unspecified), the concentration for total growth inhibition (TGI) was over 100 µM in assay [1]; 40.6 µM in assay [2]; over 100 µM in assay [3]; over 100 µM in assay [4]; 78.8 µM in assay [5]; over 100 µM in assay [8]. Moreover, the TGI in assay [6] and in assay [7] was over 100 µM each time.
In the case of `C[C@@]1(O)CC[C@]2(C)C3CCCC3[C@H]12` (stereo partly specified), the TGI in assay [1], in assay [2], in assay [3], in assay [4], in assay [5] and in assay [8] was over 100 µM throughout. The TGI in assay [6] and in assay [7] was over 100 µM in each case.
For orientation: GI50 means the concentration at which growth is held to half of that of the control. Take `O=C1C(C(Nc2ccccc2)c2ccccc2)=C([O-])c2ccccc21.O=C1C(C(Nc2ccccc2)c2ccccc2)=C([O-])c2ccccc21.[Cu+2]` (stereo unspecified): the GI50 in assay [2] was 19.6 µM; in assay [3], 18.5 µM; in assay [4] it was 28.6 µM; in assay [5] it was 40.9 µM; in assay [8], 54.5 µM; in assay [6], 17.2 µM. The GI50 in assay [7] was 27.2 µM. For the same compound, the TGI was over 100 µM in assay [2]; over 100 µM in assay [3]; over 100 µM in assay [4]; over 100 µM in assay [5]; over 100 µM in assay [8]; 92.1 µM in assay [6]. This compound displayed a TGI in assay [7] of over 100 µM.
Regarding `O=c1c2cccnc2ncn1CCN1CCCCC1`, the TGI in assay [1], in assay [3], in assay [4], in assay [5], in assay [8] and in assay [6] was over 100 µM each time. In assay [7], the TGI is over 100 µM.
`COc1ccc2c(c1)[n+]([O-])c(C(N)=O)c(N)[n+]2[O-]`: the concentration for total growth inhibition (TGI) in assay [2], in assay [3], in assay [4], in assay [5], in assay [8] and in assay [6] was over 100 µM each time. Also, the total growth inhibition concentration (TGI) in assay [7] is over 100 µM.
Regarding `[O-][Cl+3]([O-])([O-])[O-].[O]=[Ru]=[O].c1ccc(-c2ccccn2)nc1.c1ccc(-c2ccccn2)nc1`, the GI50 is 88.6 µM in assay [1]; over 100 µM in assay [2]; over 100 µM in assay [3]; over 100 µM in assay [4]; over 100 µM in assay [5]; 58.8 µM in assay [8]. Also, the GI50 in assay [6] was 40.9 µM; in assay [7] it was over 100 µM. The total growth inhibition concentration (TGI) in assay [1], in assay [2], in assay [3], in assay [4], in assay [5] and in assay [8] was over 100 µM each time. For the same compound, the TGI in assay [6] and in assay [7] was over 100 µM throughout.
For the compound `CC(=O)[O-].CC(=O)[O-].O=C(N/N=C/c1cc(Cl)cc(Cl)c1O)c1ccncc1.[Cu+2]`, the TGI in assay [1], in assay [2], in assay [3], in assay [4], in assay [5] and in assay [8] was over 100 µM in each case. Besides, the TGI in assay [6] and in assay [7] was over 100 µM each time. For the same compound, the GI50 in assay [5] is over 100 µM.
Turning to `Clc1ccc2cccc3c2c1C1OC3c2ccccc21` (stereo unspecified), the TGI in assay [1], in assay [2], in assay [3], in assay [4], in assay [5] and in assay [8] was over 100 µM in each case. The concentration for total growth inhibition (TGI) in assay [6] and in assay [7] was over 100 µM throughout.
`Cc1[cH-]c(=O)n(-c2ccccc2)n1.[Au+].[Au].c1ccc([PH+](c2ccccc2)c2ccccc2)cc1.c1ccc([PH+](c2ccccc2)c2ccccc2)cc1`: the GI50 is over 100 µM in assay [1]; 15.2 µM in assay [2]; 9.12 µM and 9.46 µM in assay [3]; 34.7 µM in assay [4]; 2.79 µM in assay [5]; 13.6 µM in assay [8]. Also, the GI50 in assay [6] was 14.7 µM; in assay [7] it was 46.8 µM. Besides, the TGI in assay [1] was over 100 µM; in assay [2] it was 41.1 µM; in assay [3], 41.5 µM; in assay [4], over 100 µM; in assay [5] it was 7.77 µM; in assay [8] it was 31.7 µM. Moreover, the TGI is 39.3 µM in assay [6] and over 100 µM in assay [7].
Turning to `N#CCCC[Si]12OCCN(CCO1)CCO2`, the TGI in assay [1], in assay [2], in assay [4], in assay [5], in assay [8] and in assay [6] was over 100 µM each time. This compound returned a TGI in assay [7] of over 100 µM.
As to `O=C(/C=C/c1c(O)ccc2ccccc12)c1ccc([N+](=O)[O-])cc1`, the TGI is over 100 µM in assay [1]; 48.6 µM in assay [2]; 41.6 µM in assay [3]; over 100 µM in assay [4]; 30.9 µM in assay [5]; over 100 µM in assay [8]. Further, the TGI in assay [6] and in assay [7] was over 100 µM each time.
In the case of `COc1c(CC(C)=O)ccc2c1C(=O)c1ccc(C=O)c(OC(C)=O)c1C2=O`, the TGI in assay [1] was 24.5 µM; in assay [2] it was 22.4 µM; in assay [3] it was 25.6 µM; in assay [4] it was over 100 µM; in assay [5], 44.1 µM; in assay [8], 44.2 µM. In addition, the TGI in assay [6] was 77.8 µM; in assay [7], over 100 µM.
In the case of `CCOC(=O)C1Sc2ccccc2N=C1C` (stereo unspecified), the TGI in assay [1], in assay [2], in assay [4], in assay [5], in assay [8] and in assay [6] was over 100 µM each time. The compound further gave a TGI in assay [7] of over 100 µM.
For `CN1C(=O)C(=O)N2c3ccc(Cl)cc3C3(c4ccccc4)N=CC12O3` (stereo unspecified), the TGI was 28.4 µM in assay [1]; 6.26 µM in assay [2]; 15 µM in assay [3]; 19.9 µM in assay [4]; 6.63 µM in assay [5]; 40 µM in assay [8]. In addition, the TGI in assay [6] worked out at 24.3 µM; in assay [7], 23.1 µM.
As to `COc1ccc(/C=C/COC(C)=O)cc1OC`, the TGI in assay [1], in assay [4], in assay [5], in assay [8], in assay [6] and in assay [7] was over 100 µM in each case.
Take `CN(C)CC1CCCC/C1=N/O` (stereo unspecified): the concentration for total growth inhibition (TGI) in assay [1], in assay [2], in assay [3], in assay [4], in assay [5] and in assay [8] was over 100 µM in each case. Also, the TGI in assay [6] and in assay [7] was over 100 µM throughout.
As for `O=c1[nH]c(-c2ccccc2)nc2cc(Cl)ccc12`, the TGI in assay [1], in assay [2], in assay [3], in assay [4], in assay [8] and in assay [6] was over 100 µM in each case. The compound also displayed a TGI in assay [7] of over 100 µM.
With `CCCOc1nc(N)c2cnn(C3CCCCO3)c2n1` (stereo unspecified), the total growth inhibition concentration (TGI) in assay [1], in assay [2], in assay [3], in assay [4], in assay [5] and in assay [8] was over 100 µM throughout. For the same compound, the TGI in assay [6] and in assay [7] was over 100 µM each time.
